Source: patent US20060178342A1, “Hyaluronan as a cytotoxic agent, drug pre-sensitizer and chemo-sensitizer in the treatment of disease” (priority 2001, published 2006)

What was measured:
[1] = test system: Human LIM1215 colon cancer xenografts; experiment: 14-week efficacy study, irinotecan ± HA in colon cancer xenografts; assay type: in vivo, mouse; details: 13.3, 26.6 or 150 mg/kg HA, IV bolus Day 1 of 14 × q7 D
Text: Human LIM1215 colon cancer xenografts were inoculated into the mammary fat pad of athymic […] nude mice. Mice were randomly distributed into eight treatment groups (8 mice per group).
The treatment regime comprised of injections on Day 1 of a 7-day cycle for duration of fourteen weeks. Primary tumor volume, animal body mass, energy levels and food consumption were monitored three times weekly.
Athymic CBA/WEHI nude female mice (Walter and Eliza Hall Research Institute, Melbourne, Australia), 6 to 8 weeks old, were maintained under specific pathogen-free conditions, with sterilized food and water available ad libitum. Each mouse received one injection containing 1×10^7 cells in 50-100 μl. […]
Any animals with a tumor volume expressed as a percentage of body weight outside 0.25±0.10 (mean±1 SD) were excluded from data analysis. […]
The experimental end-point for each animal occurred either when the animal had to be euthanized due to a high degree of disease progression or when the 14-week study had been completed. The animals were monitored three times weekly and the following criteria were established to determine whether an animal had reached the experimental end point: tumour mass is greater than 10% of the animals total body mass; the animal is metabolically stressed (i.e. losing weight); or the animal is immobilized.

[2] = test system: MDA-MB 468 Breast cancer xenografts; experiment: HA alone on breast cancer xenografts, metastasis, body mass and survival; assay type: in vivo; details: 12.5 mg/kg HA, three regimens; significant in 3/3 experiments
Experimental: To determine the effect of HA on tumor volume in vivo, 12.5 mg/kg of HA was administered on day 1 and 2 of a 7 day cycle for 6 cycles and 12.5 mg/kg on day 1 and 3 of 7 day cycle for 6 cycles (FIG. 9A) or 12.5 mg/kg on day 1 and 8 of 28 day cycle for 6 cycles (FIG. 9B). […] This anti-proliferative effect could be due to the degradation of the HA into apoptotic-inducing fragments and/or the microembolisation effect, which could result in tissue hypoxia and subsequent cell death.
The following table sets forth the results of the administration of HA on breast and colon cancer xenographs, metastasis, body mass and survival in vivo.

[3] = test system: HCT-116; experiment: Effect of HA on cell proliferation; assay type: cell-based, human; details: 3 days constant exposure, 100 nM
Experimental: (§1) The effect of HA on the proliferation of human breast and colon cancer cell lines was determined according to the methods set forth in the Table 11.

[4] = test system: HT-29; experiment: Effect of HA on cell proliferation; assay type: cell-based, human; details: 3 days constant exposure, 100 nM
Experimental: as §1

[5] = test system: LIM 1215; experiment: Effect of HA on cell proliferation; assay type: cell-based, human; details: 3 days constant exposure, 100 nM
Experimental: as §1

[6] = test system: LIM 2099; experiment: Effect of HA on cell proliferation; assay type: cell-based, human; details: 3 days constant exposure, 100 nM
Experimental: as §1

[7] = test system: MDA MB 231; experiment: Effect of HA on cell proliferation; assay type: cell-based, human
Experimental: as §1

[8] = test system: MDA MB 435; experiment: Effect of HA on cell proliferation; assay type: cell-based, human
Experimental: as §1

[9] = test system: MDA MB 468; experiment: Effect of HA on cell proliferation; assay type: cell-based, human
Experimental: as §1

[10] = test system: SK-CO-1; experiment: Effect of HA on cell proliferation; assay type: cell-based, human; details: 3 days constant exposure, 100 nM
Experimental: as §1

[11] = test system: SW1222; experiment: Effect of HA on cell proliferation; assay type: cell-based, human; details: 3 days constant exposure, 100 nM
Experimental: as §1

[12] = test system: SW620; experiment: Effect of HA on cell proliferation; assay type: cell-based, human; details: 3 days constant exposure, 100 nM
Experimental: as §1

[13] = test system: ZR-75-1; experiment: Effect of HA on cell proliferation; assay type: cell-based, human; details: 3 days constant exposure
Experimental: as §1

[14] = 6-week study: treatment toxicity (body mass, blood, organ mass, survival)
Text: Animals were monitored daily for GI tract upset such as diarrhea and weekly for more severe toxicity manifestations such as weight loss.
As one of the major toxicities associated with 5-FU treatment is depression of the bone marrow and subsequent drop in white blood cells it was necessary to assess any treatment associated blood toxicity. Upon anaesthetizing the animals, blood was collected from the heart or great vessels using a needle and syringe. Estimation of white blood cell number by making a 1/50 dilution of blood in mouse tenacity saline (M) and counting it on a haemocytometer. A differential blood count was performed by counting-neutrophils, lymphocytes, and erythrocytes. The total estimation of blood cell sub-populations was compared to published data for mouse blood.
The mass of each organ was calculated as a % of the overall net body weight, and compared to the organ masses of the saline only group (Group 1).

[15] = 30 min HA followed by growth for 3 days, 100 nM
[16] = 3 days constant exposure, 100 nM
[17] = 3 days constant exposure, 500 nM
[18] = 3 days constant exposure, 10 μM
[19] = 24 H HA followed by growth for 3 days, 100 nM

hyaluronan [HA]
disease course with HA alone [1]: progressive disease | % T/C versus saline [2]: lower % T/C | Effect of HA on cell proliferation (mean ± standard deviation) [3]: 92 ± 0 (n = 8) % of untreated control | Effect of HA on cell proliferation (mean ± standard deviation) [4]: 82 ± 14 (n = 8) % of untreated control | Effect of HA on cell proliferation (mean ± standard deviation) [5]: 89 ± 5 (n = 8) % of untreated control | Effect of HA on cell proliferation (mean ± standard deviation) [6]: 105 ± 2 (n = 16) % of untreated control | Effect of HA on cell proliferation (mean ± standard deviation) [7, 15]: 86 ± 3 (n = 8) % of untreated control | Effect of HA on cell proliferation (mean ± standard deviation) [7, 16]: 106 ± 11 (n = 20) % of untreated control | Effect of HA on cell proliferation (mean ± standard deviation) [7, 17]: 100 ± 1 (n = 8) % of untreated control | Effect of HA on cell proliferation (mean ± standard deviation) [7, 18]: 101 ± 5 (n = 8) % of untreated control | Effect of HA on cell proliferation (mean ± standard deviation) [8, 19]: 111 ± 6 (n = 8) % of untreated control | Effect of HA on cell proliferation (mean ± standard deviation) [8, 15]: 86 ± 6 (n = 12) % of untreated control | Effect of HA on cell proliferation (mean ± standard deviation) [8, 16]: 85 ± 17 (n = 16) % of untreated control | Effect of HA on cell proliferation (mean ± standard deviation) [8, 17]: 55 ± 6 (n = 8) % of untreated control | Effect of HA on cell proliferation (mean ± standard deviation) [8, 18]: 101 ± 1(n = 8) % of untreated control | Effect of HA on cell proliferation (mean ± standard deviation) [9, 19]: 84 ± 1 (n = 4) % of untreated control | Effect of HA on cell proliferation (mean ± standard deviation) [9, 15]: 97 ± 15 (n = 12) % of untreated control | Effect of HA on cell proliferation (mean ± standard deviation) [9, 16]: 99 ± 6 (n = 20) % of untreated control | Effect of HA on cell proliferation (mean ± standard deviation) [9, 17]: 95 ± 3 (n = 8) % of untreated control | Effect of HA on cell proliferation (mean ± standard deviation) [9, 18]: 99 ± 6 (n = 20) % of untreated control | Effect of HA on cell proliferation (mean ± standard deviation) [10]: 95 ± 3 (n = 8) % of untreated control | Effect of HA on cell proliferation (mean ± standard deviation) [11]: 99 ± 1 (n = 8) % of untreated control | Effect of HA on cell proliferation (mean ± standard deviation) [12]: 97 ± 1 (n = 8) % of untreated control | Effect of HA on cell proliferation (mean ± standard deviation) ([13]; 100 nM): 103 ± 4 (n = 20) % of untreated control | Effect of HA on cell proliferation (mean ± standard deviation) ([13]; 500 nM): 102 ± 1 (n = 8) % of untreated control | Effect of HA on cell proliferation (mean ± standard deviation) ([13]; 10 μM): 100 ± 3 (n = 8) % of untreated control | organ mass toxicity [14]: did not result in any dramatic toxicity | body mass / well being versus 5-FU treatment group ([14]; HA as sole agent or chemosensitizer): did not loose weight, but maintained its body mass
